Literature values in US9375463B2, “Compositions and methods for improving sleep using a nutraceutical formulation” (Creative Medical Health Inc., priority 2013, dated 2016).

Tests used:
[1] = system: elderly subjects; conditions: 500 mg daily for 8 weeks, 46 elderly subjects
[2] = 3 mg
[3] = system: healthy males with normal sleep patterns; conditions: 0.3 or 1.0 mg, orally
[4] = system: children most of whom were neurologically disabled; conditions: 2-5 mg before bedtime for 7-10 days, fifteen subjects
[5] = system: subjects; conditions: oral, 4 weeks, 9 subjects; by increasing sensitivity to light
[6] = system: infants; conditions: daily for 12 months

For `[Mg+2]` [magnesium], the “levels of serum cortisol” value [1] is listed as “reduced the levels of serum cortisol” and the “subjective measures of sleep” value [1] is listed as “improved subjective measures of sleep”.

For “N-acetyl-5-hydroxytryptamine [melatonin]”, the “subjective sleep experiences (time to fall asleep, quality of sleep, awakenings)” value [2] is given as “subjective improvements in sleep experiences”, the “falling asleep faster than individuals given placebo (sleep onset latency)” value [3] is given as “approximately 40 minutes” and the sleep and moods [4] is given as “improve sleep and moods”.

For vitamin B12, the circadian rhythm [5] is listed as “advanced the circadian rhythm”.

For zinc [zinc supplements], the night sleep duration [6] is given as “increased night sleep duration” and the night waking [6] is given as “less night waking”.
